The text below walks through data of US20100009970A1, “COMPOSITIONS AND METHODS FOR TREATMENT OF VIRAL DISEASES” (Combinatorx (Singapore) Pte. Ltd., priority 2008, published 2010).

Where a name gives a salt, the structure may show the parent alone.

A word on the IC50: it is the concentration needed to halve the response being measured. Low values mean greater potency in that assay, high ones weaker potency in that assay.

The experiment concerns Huh7 cells expressing a subgenomic RNA replicon of Con1 (genotype 1b) sequence origin. In words: microbe, parasite or virus in culture. As to conditions: Hepatitis C virus, Huh-7.
Regarding `COC(=O)[C@H]1[C@H]2C[C@@H]3c4[nH]c5cc(OC)ccc5c4CCN3C[C@H]2C[C@@H](OC(=O)c2cc(OC)c(OC)c(OC)c2)[C@@H]1OC` [Reserpine, reference compound], the IC50 turned out to be 25.3 µM. That is a double-digit micromolar value.

Take `CO[C@H]1/C=C/O[C@@]2(C)Oc3c(C)c(O)c4c(c3C2=O)C2=NC3(CCN(CC(C)C)CC3)NC2=C(NC(=O)/C(C)=C\C=C\[C@H](C)[C@H](O)[C@@H](C)[C@@H](O)[C@@H](C)[C@H](OC(C)=O)[C@@H]1C)C4=O` [Rifabutin, reference compound]: the IC50 stood at 17.2 µM. This IC50 and that of the compound before are within 1.5-fold of each other.

`CO[C@H]1/C=C/O[C@@]2(C)Oc3c(C)c(O)c4c(O)c(c5c(nc6cc(C)ccn65)c4c3C2=O)NC(=O)/C(C)=C\C=C\[C@H](C)[C@H](O)[C@@H](C)[C@@H](O)[C@@H](C)[C@H](OC(C)=O)[C@@H]1C` [Rifaximin, reference compound] showed an IC50 of 19.4 µM.

Compound `CC(C)c1nc(CN(C)C(=O)N[C@H](C(=O)N[C@@H](Cc2ccccc2)C[C@H](O)[C@H](Cc2ccccc2)NC(=O)OCc2cncs2)C(C)C)cs1` [Ritonavir, reference compound] displayed an IC50 of 14.9 µM. This IC50 and that of the compound before are within 1.5-fold of each other.

On to `Oc1ccc(-c2nc(-c3ccc(F)cc3)c(-c3ccncc3)[nH]2)cc1` [SB-202190, reference compound], for which the IC50 came to 5.18 µM.

Compound `CN/C(=N\c1ccc(C2=NNC(=O)CC2C)cc1)NC#N` (centres unmarked) [Siguazodan, reference compound] had an IC50 of 2.2 µM.

`CCC(C)(C)C(=O)O[C@H]1C[C@@H](C)C=C2C=C[C@H](C)[C@H](CC[C@@H](O)C[C@@H](O)CC(=O)O)[C@H]21` [Simvastatin hydroxy acid, ammonium salt, simvastatin hydroxy acid, ammonium salt, reference compound]: half-maximal inhibition (IC50) was put at 13.4 µM.

`CCC(C)(C)C(=O)O[C@H]1C[C@@H](C)C=C2C=C[C@H](C)[C@H](CC[C@@H]3C[C@@H](O)CC(=O)O3)[C@H]21` [Simvastatin, simvastatin, reference compound] came in with an IC50 of 21.3 µM.

`C[C@]12Cc3c[nH]nc3C[C@@H]1CC[C@@H]1[C@@H]2CC[C@@]2(C)[C@H]1CC[C@]2(C)O` [Stanozolol, stanozolol, reference compound] gave an IC50 of 15.2 µM.

The compound `O=C(CCCCCCC(=O)NO)NO` [Suberohydroxamic acid, suberohydroxamic acid, reference compound] had an IC50 of 4.02 µM. Against the preceding compound, the IC50 is about 3.8-fold lower.

`CCCCCCCCCCCCCCOc1ccc(C(=O)O)o1` [TOFA, 5-(tetradecyloxy)-2-furancarboxylic acid, reference compound] displayed an IC50 of 5.53 µM. The IC50 values of the last two compounds are within 1.5-fold of each other.

`CCC[C@H](NC(=O)[C@@H]1[C@H]2CCC[C@H]2CN1C(=O)[C@@H](NC(=O)[C@@H](NC(=O)c1cnccn1)C1CCCCC1)C(C)(C)C)C(=O)C(=O)NC1CC1` [Telaprevir (VX-950), vx-950, reference compound] came in with an IC50 of 0.529 µM.

As to `CC(C)N1CCN(c2ccc(OCC3COC(Cn4cncn4)(c4ccc(Cl)cc4Cl)O3)cc2)CC1` (centres unmarked) [Terconazole, reference compound], the 50% inhibitory concentration (IC50) was 2.55 µM.

`C/C=C(/C)C(=O)O[C@H]1C(C)=C2[C@H]([C@@H]1OC(=O)CCCCCCC)[C@@](C)(OC(C)=O)C[C@H](OC(=O)CCC)[C@@]1(O)[C@H]2OC(=O)[C@@]1(C)O` [Thapsigargin, reference compound] came in with an IC50 of 0.0113 µM.

`C=C(NC(=O)C(=C)NC(=O)c1csc(C2=N[C@@H]3c4csc(n4)[C@H]4NC(=O)c5csc(n5)[C@H]([C@](C)(O)[C@@H](C)O)NC(=O)[C@H]5CSC(=N5)/C(=C/C)NC(=O)[C@H]([C@@H](C)O)NC(=O)c5csc(n5)[C@]3(CC2)NC(=O)[C@H](C)NC(=O)C(=C)NC(=O)[C@H](C)NC(=O)[C@H]([C@@H](C)CC)N[C@@H]2C=Cc3c([C@H](C)O)cc(nc3[C@H]2O)C(=O)O[C@@H]4C)n1)C(N)=O` [Thiostrepton, reference compound] yielded an IC50 of 3.84 µM.

Turning to `CN(C)C(=S)SSC(=S)N(C)C` [Thiram, thiram], it took 3.64 µM to reach half-maximal inhibition (IC50).

In turn, `O=c1oc2cc(O)ccc2s1` [Tioxolone, reference compound] displayed an IC50 of 16.2 µM.
